Source: US20250374919A1, “AQUEOUS SUSPENSION AGROCHEMICAL COMPOSITION CONTAINING NATURAL RUBBER” (SUMITOMO CHEMICAL COMPANY, LIMITED, priority 2022, published 2025)

Assay: Water solubility of agrochemical active ingredient at 20° C.
Assay type: physicochemical

Compound	water solubility at 20° C. [ppm]
Cc1nnc(Cl)c(-c2c(F)cccc2F)c1-c1ccccc1 [Pyridachlometyl]	0.8
Inpyrfluxam	16.4
